Measured values from ChEMBL document CHEMBL4052789, “Essential structure of orexin 1 receptor antagonist YNT-707, Part I: Role of the 4,5-epoxy ring for binding with orexin 1 receptor” (Bioorg Med Chem Lett, 2017).
Activity calls are given as the source filed them. The rule behind the calls is not given here.

What was measured:
[1] = molecular target: T1, Orexin/Hypocretin receptor type 1 (Homo sapiens, UniProt O43613); test: (§1) Antagonist activity at human OX1R expressed in CHOK1 cells assessed as inhibition of orexin A-induced intracellular Ca2+ release preincubated for 15 mins followed by orexin A addition by Fura 2-AM dye based fluorescence assay; format: functional, cell-based
T1 sequence (O43613 whole entry): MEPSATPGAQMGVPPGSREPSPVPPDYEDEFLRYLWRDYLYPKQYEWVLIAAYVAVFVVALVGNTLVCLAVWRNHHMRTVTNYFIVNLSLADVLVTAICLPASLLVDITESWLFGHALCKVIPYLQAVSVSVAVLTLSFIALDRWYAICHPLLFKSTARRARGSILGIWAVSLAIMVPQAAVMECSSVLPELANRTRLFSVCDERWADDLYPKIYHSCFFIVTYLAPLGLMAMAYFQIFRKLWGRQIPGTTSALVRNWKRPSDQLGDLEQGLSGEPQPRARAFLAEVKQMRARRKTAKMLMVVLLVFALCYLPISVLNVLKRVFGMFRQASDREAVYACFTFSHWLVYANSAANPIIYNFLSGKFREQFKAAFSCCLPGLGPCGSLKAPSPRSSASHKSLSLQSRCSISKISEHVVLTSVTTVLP

Orexin receptor type 2 = molecular target: T2, Orexin receptor type 2 (Homo sapiens, UniProt O43614); test: Antagonist activity at human OX2R expressed in CHOK1 cells assessed as inhibition of orexin A-induced intracellular Ca2+ release preincubated for 15 mins followed by orexin A addition by Fura 2-AM dye based fluorescence assay; format: functional, cell-based
T2 sequence (O43614 whole entry): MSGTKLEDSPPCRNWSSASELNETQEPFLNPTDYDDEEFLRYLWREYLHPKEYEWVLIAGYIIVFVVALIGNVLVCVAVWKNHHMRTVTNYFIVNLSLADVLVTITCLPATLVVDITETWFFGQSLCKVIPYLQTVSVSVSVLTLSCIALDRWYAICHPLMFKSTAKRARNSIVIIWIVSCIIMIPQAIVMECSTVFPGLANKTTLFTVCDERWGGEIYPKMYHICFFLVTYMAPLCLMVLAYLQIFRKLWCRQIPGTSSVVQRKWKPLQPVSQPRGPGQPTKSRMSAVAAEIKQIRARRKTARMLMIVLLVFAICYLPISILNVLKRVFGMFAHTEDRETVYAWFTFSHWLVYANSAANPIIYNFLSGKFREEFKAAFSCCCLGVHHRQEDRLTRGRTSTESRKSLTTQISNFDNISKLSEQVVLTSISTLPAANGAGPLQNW

[2] = molecular target: T3, Orexin/Hypocretin receptor type 1 (Homo sapiens) (UniProt O43613); test: as §1; format: functional, cell-based
T3 sequence (whole entry): T1 sequence (O43613 whole entry)

Homo sapiens = species: Homo sapiens; test: Selectivity ratio of Ki for human OX2R to Ki for human OX1R

Structure (SMILES)	Ki [1]	IC50 (Orexin receptor type 2)	other results
COc1ccc2c(c1)[C@]13CCN(S(=O)(=O)c4ccccc4)[C@H](C2)[C@]1(O)CC[C@@H](N(C)C(=O)/C=C/c1ccoc1)C3	0.0316 µM	> 10 µM	–
CN(C(=O)/C=C/c1ccoc1)[C@@H]1CC[C@@]2(O)[C@H]3Cc4cccc5c4[C@@]2(CCN3S(=O)(=O)c2ccccc2)[C@H]1O5	–	≥ 10 µM	IC50 [1]: 1.91 µM
CN(C(=O)/C=C/c1ccoc1)[C@@H]1CC[C@@]2(O)[C@H]3Cc4ccc(OCc5ccccc5)c5c4[C@@]2(CCN3S(=O)(=O)c2ccccc2)[C@H]1O5	–	–	inhibition [2]: inactive
COc1ccc2c3c1O[C@H]1[C@@H](N(C)C(=O)/C=C/c4ccoc4)CC[C@@]4(O)[C@@H](C2)N(S(=O)(=O)c2ccccc2)CC[C@]314	0.849 µM	> 10 µM	–
COc1ccc2c(c1)[C@]13CCN(S(=O)(=O)c4ccccc4)[C@H](C2)[C@]1(O)CC[C@H](N(C)C(=O)/C=C/c1ccoc1)C3	0.0112 µM	–	Ratio Ki (Homo sapiens): 26.1; Ki (Orexin receptor type 2): 0.294 µM
COc1ccc2c3c1O[C@H]1[C@H](N(C)C(=O)/C=C/c4ccoc4)CC[C@@]4(O)[C@@H](C2)N(S(=O)(=O)c2ccccc2)CC[C@]314	–	> 10 µM	–
